{"source": "patent US11560371B2", "about": "“Cereblon binding compounds, compositions thereof, and methods of treatment therewith” (Celgene Corporation, priority 2020, dated 2023)", "target": "T1, AR (Homo sapiens, UniProt P10275)", "T1 construct": "endogenous in cells; host or cells: VCaP cells", "T1 sequence (P10275 1-920)": "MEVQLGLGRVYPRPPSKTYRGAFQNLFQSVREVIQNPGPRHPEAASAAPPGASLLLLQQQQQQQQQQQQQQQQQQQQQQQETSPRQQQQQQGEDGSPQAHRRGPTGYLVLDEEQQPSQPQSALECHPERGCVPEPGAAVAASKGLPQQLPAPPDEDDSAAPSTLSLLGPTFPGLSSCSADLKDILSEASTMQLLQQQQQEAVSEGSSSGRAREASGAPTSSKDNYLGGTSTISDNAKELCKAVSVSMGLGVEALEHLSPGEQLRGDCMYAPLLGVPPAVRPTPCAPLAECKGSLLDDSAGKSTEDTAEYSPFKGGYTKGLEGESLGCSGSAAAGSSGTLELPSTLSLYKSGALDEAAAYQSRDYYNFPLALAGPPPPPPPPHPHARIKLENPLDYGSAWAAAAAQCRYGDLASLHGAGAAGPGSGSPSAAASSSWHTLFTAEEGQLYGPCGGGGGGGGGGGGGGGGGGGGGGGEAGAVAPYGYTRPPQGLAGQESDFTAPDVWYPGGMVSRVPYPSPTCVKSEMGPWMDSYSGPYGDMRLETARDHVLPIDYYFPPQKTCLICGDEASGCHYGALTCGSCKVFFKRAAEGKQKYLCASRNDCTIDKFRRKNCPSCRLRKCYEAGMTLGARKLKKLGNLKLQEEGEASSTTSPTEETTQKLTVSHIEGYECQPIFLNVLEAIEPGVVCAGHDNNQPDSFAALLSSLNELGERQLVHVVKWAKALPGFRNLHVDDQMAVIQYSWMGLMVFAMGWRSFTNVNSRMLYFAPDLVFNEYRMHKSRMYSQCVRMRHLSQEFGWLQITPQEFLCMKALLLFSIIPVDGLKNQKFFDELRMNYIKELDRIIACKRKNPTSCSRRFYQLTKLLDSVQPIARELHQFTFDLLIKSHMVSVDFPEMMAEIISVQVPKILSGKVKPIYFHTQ", "assay": "VCAP AR Degradation Assay", "assay_type": "cell-based", "conditions": "VCaP cells, 24 h, AR ELISA; for DC50: concentration of compound when AR level = 50% of DMSO control (50% AR degradation); for Y: lowest measured AR level normalized to DMSO control (AR degradation efficiency)", "protocol": "VCAP AR Degradation Assay. Test compounds were pre-dispensed into a Corning CellBind 96-well clear bottom plate (Cat #3300) using an acoustic dispenser to make a 10-point concentration series at 1:3 dilution for each compound. The final top concentration of each compound was 5 μM. DMSO at a final concentration of 0.1% was used as a control. VCaP cells cultured in DMEM with 8% fetal bovine serum (FBS) were seeded at 50K cells per well in a 200 μL volume into the compound plate and incubated at 37° C. in a CO2 incubator for 24 h. The medium was carefully removed from the cells and the plate was placed on ice. […] ice-cold 1× cell lysis buffer from Cell Signaling Technologies (Cat #9803) was added to each well of the cells and the plate was incubated at 4° C. on a shaker for 1 h. Fifteen μL of cell lysate was used for AR ELISA detection using a PathScan Total Sandwich AR ELISA kit (Cell Signaling Technology, Cat #12580). AR levels in compound-treated wells were normalized to that of DMSO control and expressed as percent of control (PoC) (y). A Four Parameter Logistic Model (Sigmoidal Dose-Response Model) was used to determine the compound's DC50, and EC50, using the following equation: y=(A+((B−A)/(1+((C/x)^D)))) • A=YMin (lowest AR level normalized to DMSO control in response to compound treatment, as determined by curve fit) • B=YMax (maximum AR level as determined by curve fit) • C=EC50 • D=Hill Slope • x=compound concentration • EC50=the concentration of compound when y=[…] • DC50=the concentration of the compound when y=50% of DMSO control (50% AR degradation) • y=AR protein level normalized to DMSO control\nThe lowest measured AR level normalized to DMSO control in response to compound treatment, termed Y value, was used to characterize the compound-mediated AR degradation efficiency.", "note": "Where a name gives a salt, the structure may show the parent alone."}
{"smiles": "C[C@@H]1CN(CCC[C@H]2CC[C@H](N3C(=S)N(c4cnc(C#N)c(Cl)c4)C(=O)C3(C)C)CC2)C[C@H](C)N1CC(=O)Nc1cccc2c(N3CCC(=O)NC3=O)nn(C)c12", "note": "[Cmpd 12, 2-((2R,6S)-4-(3-(trans-4-(3-(5-Chloro-6-cyanopyridin-3-yl)-5,5-dimethyl-4-oxo-2-thioxoimidazolidin-1-yl)cyclohexyl)propyl)-2,6-dimethylpiperazin-1-yl)-N-(3-(2,4-dioxotetrahydropyrimidin-1(2H)-yl)-1-methyl-1H-indazol-7-yl)acetamide hydrochloride]", "values": [{"measurement": "DC50", "result": "0.002 to 0.01", "unit": "µM"}, {"measurement": "Y", "result": "** (20%<Y≤%)"}]}
{"smiles": "C[C@@H]1C[C@@H](CCO[C@H]2CC[C@H](N3C(=S)N(c4ccc(C#N)c(C(F)(F)F)c4)C(=O)C3(C)C)CC2)C[C@H](C)N1CC(=O)Nc1cccc2c(N3CCC(=O)NC3=O)nn(C)c12", "note": "[Cmpd 13, 2-((2R,4s,6S)-4-(2-((trans-4-(3-(4-Cyano-3-(trifluoromethyl)phenyl)-5,5-dimethyl-4-oxo-2-thioxoimidazolidin-1-yl)cyclohexyl)oxy)ethyl)-2,6-dimethylpiperidin-1-yl)-N-(3-(2,4-dioxotetrahydropyrimidin-1(2H)-yl)-1-methyl-1H-indazol-7-yl)acetamide hydrochloride]", "values": [{"measurement": "DC50", "result": "0.002 to 0.01", "unit": "µM"}, {"measurement": "Y", "result": "* (0<Y≤20%)"}]}
{"smiles": "C[C@@H]1C[C@H](CCO[C@H]2CC[C@H](N3C(=S)N(c4ccc(C#N)c(C(F)(F)F)c4)C(=O)C3(C)C)CC2)C[C@H](C)N1CC(=O)Nc1cccc2c(N3CCC(=O)NC3=O)nn(C)c12", "note": "[Cmpd 14, 2-((2R,4r,6S)-4-(2-((trans-4-(3-(4-Cyano-3-(trifluoromethyl)phenyl)-5,5-dimethyl-4-oxo-2-thioxoimidazolidin-1-yl)cyclohexyl)oxy)ethyl)-2,6-dimethylpiperidin-1-yl)-N-(3-(2,4-dioxotetrahydropyrimidin-1(2H)-yl)-1-methyl-1H-indazol-7-yl)acetamide hydrochloride]", "values": [{"measurement": "DC50", "result": "0.002 to 0.01", "unit": "µM"}, {"measurement": "Y", "result": "* (0<Y≤20%)"}]}
{"smiles": "C[C@@H]1CN(CCO[C@H]2CC[C@H](N3C(=S)N(c4ccc(C#N)c(C(F)(F)F)c4)C(=O)C3(C)C)CC2)C[C@H](C)N1CCOc1cccc2c(N3CCC(=O)NC3=O)nn(C)c12", "note": "[Cmpd 15, 4-(3-(trans-4-(2-((3R,5S)-4-(2-((3-(2,4-Dioxotetrahydropyrimidin-1(2H)-yl)-1-methyl-1H-indazol-7-yl)oxy)ethyl)-3,5-dimethylpiperazin-1-yl)ethoxy)cyclohexyl)-4,4-dimethyl-5-oxo-2-thioxoimidazolidin-1-yl)-2-(trifluoromethyl)benzonitrile hydrochloride]", "values": [{"measurement": "DC50", "result": "0.1 to 10", "unit": "µM"}, {"measurement": "Y", "result": "** (20%<Y≤%)"}]}
{"smiles": "C[C@@H]1CN(CCO[C@H]2CC[C@H](N3C(=S)N(c4ccc(C#N)c(C(F)(F)F)c4)C(=O)C3(C)C)CC2)C[C@H](C)N1CCCOc1cccc2c(N3CCC(=O)NC3=O)nn(C)c12", "note": "[Cmpd 16, 4-(3-(trans-4-(2-((3S,5R)-4-(3-((3-(2,4-dioxotetrahydropyrimidin-1(2H)-yl)-1-methyl-1H-indazol-7-yl)oxy)propyl)-3,5-dimethylpiperazin-1-yl)ethoxy)cyclohexyl)-4,4-dimethyl-5-oxo-2-thioxoimidazolidin-1-yl)-2-(trifluoromethyl)benzonitrile hydrochloride]", "values": [{"measurement": "DC50", "result": "0.1 to 10", "unit": "µM"}, {"measurement": "Y", "result": "*** (30%<Y<60%)"}]}
{"smiles": "C[C@@H]1CN(CCCC[C@H]2CC[C@H](N3C(=S)N(c4ccc(C#N)c(C(F)(F)F)c4)C(=O)C3(C)C)CC2)C[C@H](C)N1CC(=O)Nc1cccc2c(N3CCC(=O)NC3=O)nn(C)c12", "note": "[Cmpd 17, 2-((2R,6S)-4-(4-(trans-4-(3-(4-Cyano-3-(trifluoromethyl)phenyl)-5,5-dimethyl-4-oxo-2-thioxoimidazolidin-1-yl)cyclohexyl)butyl)-2,6-dimethylpiperazin-1-yl)-N-(3-(2,4-dioxotetrahydropyrimidin-1(2H)-yl)-1-methyl-1H-indazol-7-yl)acetamide hydrochloride]", "values": [{"measurement": "DC50", "result": "0.002 to 0.01", "unit": "µM"}, {"measurement": "Y", "result": "** (20%<Y≤%)"}]}
{"smiles": "C[C@@H]1CN(CCO[C@H]2CC[C@H](N3C(=S)N(c4ccc(C#N)c(C(F)(F)F)c4)C(=O)C3(C)C)CC2)C[C@H](C)N1CCNc1cccc2c(N3CCC(=O)NC3=O)nn(C)c12", "note": "[Cmpd 18, 4-(3-(trans-4-(2-((3R,5S)-4-(2-((3-(2,4-Dioxotetrahydropyrimidin-1(2H)-yl)-1-methyl-1H-indazol-7-yl)amino)ethyl)-3,5-dimethylpiperazin-1-yl)ethoxy)cyclohexyl)-4,4-dimethyl-5-oxo-2-thioxoimidazolidin-1-yl)-2-(trifluoromethyl)benzonitrile hydrochloride]", "values": [{"measurement": "DC50", "setting": "hydrochloride", "result": "0.01 to 0.1", "unit": "µM"}, {"measurement": "Y", "result": "*** (30%<Y<60%)"}]}
{"smiles": "Cn1nc(N2CCC(=O)NC2=O)c2cccc(NC(=O)CN3CCN(CCO[C@H]4CC[C@H](N5C(=S)N(c6ccc(C#N)c(C(F)(F)F)c6)C(=O)C5(C)C)CC4)C[C@@H]3C(F)(F)F)c21", "note": "[Cmpd 20, 2-((R)-4-(2-((trans-4-(3-(4-Cyano-3-(trifluoromethyl)phenyl)-5,5-dimethyl-4-oxo-2-thioxoimidazolidin-1-yl)cyclohexyl)oxy)ethyl)-2-(trifluoromethyl)piperazin-1-yl)-N-(3-(2,4-dioxotetrahydropyrimidin-1(2H)-yl)-1-methyl-1H-indazol-7-yl)acetamide hydrochloride]", "values": [{"measurement": "DC50", "result": "≤ 0.002", "unit": "µM"}, {"measurement": "Y", "result": "** (20%<Y≤%)"}]}
{"smiles": "C[C@@H]1CN(CCO[C@H]2CC[C@H](N3C(=S)N(c4ccc(C#N)c(S(F)(F)(F)(F)F)c4)C(=O)C3(C)C)CC2)C[C@H](C)N1CC(=O)Nc1cccc2c(N3CCC(=O)NC3=O)nn(C)c12", "note": "[Cmpd 21, 2-((2S,6R)-4-(2-((trans-4-(3-(4-Cyano-3-(pentafluoro-λ^6-sulfaneyl)phenyl)-5,5-dimethyl-4-oxo-2-thioxoimidazolidin-1-yl)cyclohexyl)oxy)ethyl)-2,6-dimethylpiperazin-1-yl)-N-(3-(2,4-dioxotetrahydropyrimidin-1(2H)-yl)-1-methyl-1H-indazol-7-yl)acetamide hydrochloride]", "values": [{"measurement": "DC50", "result": "0.1 to 10", "unit": "µM"}, {"measurement": "Y", "result": "*** (30%<Y<60%)"}]}
{"smiles": "Cn1nc(N2CCC(=O)NC2=O)c2cccc(NC(=O)CN3CCN(CCC[C@H]4CC[C@H](N5C(=S)N(c6cnc(C#N)c(C(F)(F)F)c6)C(=O)C5(C)C)CC4)C[C@@H]3C(F)(F)F)c21", "note": "[Cmpd 22, 2-((R)-4-(3-(trans)-4-(3-(6-cyano-5-(trifluoromethyl)pyridin-3-yl)-5,5-dimethyl-4-oxo-2-thioxoimidazolidin-1-yl)cyclohexyl)propyl)-2-(trifluoromethyl)piperazin-1-yl)-N-(3-(2,4-dioxotetrahydropyrimidin-1(2H)-yl)-1-methyl-1H-indazol-7-yl)acetamide hydrochloride]", "values": [{"measurement": "DC50", "result": "0.002 to 0.01", "unit": "µM"}, {"measurement": "Y", "result": "* (0<Y≤20%)"}]}
{"smiles": "Cn1nc(N2CCC(=O)NC2=O)c2cccc(NC(=O)CN3CCN(CCC[C@H]4CC[C@H](N5C(=S)N(c6ccc(C#N)c(C(F)(F)F)c6)C(=O)C5(C)C)CC4)C[C@@H]3C(F)(F)F)c21", "note": "[Cmpd 23, 2-((R)-4-(3-(trans-4-(3-(4-cyano-3-(trifluoromethyl)phenyl)-5,5-dimethyl-4-oxo-2-thioxoimidazolidin-1-yl)cyclohexyl)propyl)-2-(trifluoromethyl)piperazin-1-yl)-N-(3-(2,4-dioxotetrahydropyrimidin-1(2H)-yl)-1-methyl-1H-indazol-7-yl)acetamide]", "values": [{"measurement": "DC50", "result": "0.002 to 0.01", "unit": "µM"}, {"measurement": "Y", "result": "** (20%<Y≤%)"}]}
